Test results published in ChEMBL document CHEMBL1926578, “On a possible neutral charge state for the catalytic dyad in β-secretase when bound to hydroxyethylene transition state analogue inhibitors” (J Med Chem, 2011).
*1 amine or outer side, *2 acyl side, *3 side chain or, on linkers, in order; H or OH if unused. Where a SMILES comes first, the peptide text is derived from it. [ ]: non-standard residue; d: D form. X1 = CC(C)C[C@H](N[*:1])[C@@H](O)C[C@H](C(=O)[*:2])C(C)C

Biological target: Beta-secretase 1 (Homo sapiens, UniProt P56817)
Sequence (P56817 whole entry): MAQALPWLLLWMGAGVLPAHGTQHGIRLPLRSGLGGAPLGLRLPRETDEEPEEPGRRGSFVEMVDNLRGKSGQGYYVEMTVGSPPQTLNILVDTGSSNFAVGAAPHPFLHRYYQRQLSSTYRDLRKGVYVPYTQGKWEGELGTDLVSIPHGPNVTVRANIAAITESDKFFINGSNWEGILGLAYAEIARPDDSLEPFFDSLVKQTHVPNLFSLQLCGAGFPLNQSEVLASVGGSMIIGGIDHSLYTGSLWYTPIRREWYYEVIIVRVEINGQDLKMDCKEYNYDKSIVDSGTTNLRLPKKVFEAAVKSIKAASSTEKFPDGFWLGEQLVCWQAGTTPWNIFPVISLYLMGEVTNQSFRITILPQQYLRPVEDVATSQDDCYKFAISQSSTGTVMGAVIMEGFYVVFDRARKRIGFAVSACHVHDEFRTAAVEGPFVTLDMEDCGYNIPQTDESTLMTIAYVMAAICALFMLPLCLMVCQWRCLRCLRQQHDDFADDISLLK

| Structure (SMILES) | IC50 [nM] |
| --- | --- |
| CC(C)C[C@H](NC(=O)[C@H](CC(N)=O)NC(=O)[C@@H](NC(=O)[C@@H](N)CCC(=O)O)C(C)C)[C@@H](O)C[C@H](C(=O)N[C@@H](C)C(=O)N[C@@H](CCC(=O)O)C(=O)N[C@@H](Cc1ccccc1)C(=O)O)C(C)C (H-EVN[X1]AEF-OH) | 165 |
| CCC(C)[C@H](NC(=O)[C@@H](N)CCC(N)=O)C(=O)N[C@@H](CC(=O)O)C(=O)N[C@@H](CC(C)C)[C@@H](O)C[C@@H](C)C(=O)N[C@@H](C)C(=O)N[C@@H](CCC(=O)O)C(=O)N[C@@H](Cc1ccccc1)C(=O)O (single isomer, unassigned) | 45.5 |
